Measurements published in patent US11191773B2, “Methods of treatment for bacterial infections” (President and Fellows of Harvard College, priority 2017, dated 2021).
“Also recorded” adds a separate entry of the source. Where two headings read alike, the source gives them in different places.

Legend:
[1] = test system: novobiocin-resistant A. baumannii 19606 gyrB(R150C) point mutant (Novo^R); assay type: cell-based
[2] = test system: K. pneumoniae, A. baumannii, P. aeruginosa, E. coli; experiment: Log(CFU/mL) vs. time curves (FIG. 3); assay type: cell-based; conditions: Novobiocin 50-130 μg/mL, Polymyxin B 1.4-2.0 μg/mL
Experimental: FIGS. 3A-3D are a set of plots of colony forming units/ml (CFU/ml) over time when untreated, or treated with polymyxin B, novobiocin, or a combination of both. FIG. 3A is a growth curve of Klebsiella pneumoniae. FIG. 3B is a growth curve of Acinetobacter baumannii Novo^R. FIG. 3C is a plot of CFU/ml over time of Pseudomonas aeruginosa. FIG. 3D is a growth curve of Escherichia coli.
Log(CFU/mL) vs. time curves. Overnight cultures were diluted 1:100 and grown at 37° C., 220 rpm until OD600=0.1. This culture was transferred to four sterile 5 mL tubes and treated with polymyxin B, novobiocin, polymyxin B+novobiocin, or no drug and incubated at 37° C., 220 rpm. At each timepoint, 10 μL from each condition was log10 diluted to 10^−7 and subsequently plated on LB Miller agar containing no antibiotic. Time=0 h represents the CFU/mL count immediately after the initial treatment. Y-values of zero indicate fewer than 10,000 CFUs (limit of detection). Strains are identical to those used in FIG. 1. K. pneumoniae: [Novobiocin]=130 μg/mL, [Polymyxin B]=1.4 μg/mL; A. baumannii: [Novobiocin]=100 μg/mL, [Polymyxin B]=2.0 μg/mL; P. aeruginosa: [Novobiocin]=100 μg/mL, [Polymyxin B]=2.0 μg/mL; E. coli: [Novobiocin]=50 μg/mL, [Polymyxin B]=2.0 μg/mL.

[3] = test system: polymyxin-resistant K. pneumoniae (clinical isolate from Brigham and Women's Hospital); assay type: cell-based; conditions: 37° C. for 24 h
Experimental: The effect of novobiocin/polymyxin combination was further assessed in polymyxin-resistant strains using checkerboard microdilution assays. In these assays, polymyxin-resistant strains (E. coli (clinical isolate from Brigham and Women's Hospital); A. baumannii (ATCC: 19606) mutant that is novobiocin and polymyxin-resistant; and K. pneumoniae (clinical isolate from Brigham and Women's Hospital)) were grown at 37° C. for 24 h.

lptB1(G33C) = experiment: Disk diffusion assay; assay type: cell-based, E. coli; conditions: Escherichia coli, read-out: Zone of inhibition, diameter of the zone of total growth inhibition
Experimental: (§1) Zones of inhibition were measured in disk diffusion assays of wild type, IptB1, and suppressors IptB1(R144H) and IptB1(G33C) pictured in FIG. 6B. Assays were conducted with 6-mm disks. Numbers outside of parentheses report the diameter of the zone of total growth inhibition (in mm), while numbers inside parenthesis report the diameter of the zone of partial growth inhibition.
(§2) Disk diffusion assays were performed as described in Sherman et al., Proc. Natl. Acad. Sci. USA 2014, 111, 4982-4987. Premade Sensi-Disc (BD-Beckton, Dickinson and Company) were used for bacitracin 10IU, erythromycin 15 μg, novobiocin 30 μg, and rifampin 5 μg.

lptB1(R144H) = experiment: Disk diffusion assay; assay type: cell-based, E. coli; conditions: Escherichia coli, read-out: Zone of inhibition, diameter of the zone of total growth inhibition
Experimental: as §1, §2

lptB1 = experiment: Disk diffusion assay; assay type: cell-based, E. coli; conditions: Escherichia coli
Experimental: as §1, §2

wild type = experiment: Disk diffusion assay; assay type: cell-based, E. coli; conditions: Escherichia coli; 6-mm disks; bacitracin 10IU, erythromycin 15 μg, novobiocin 30 μg, rifampin 5 μg, nalidixic acid 5 μg; read-out: Zone of inhibition, diameter of the zone of total growth inhibition
Experimental: as §1, §2

[4] = molecular target: T1, wild-type LptB2FGC complexes (Escherichia coli, UniProt P0A9V1); experiment: LPS-release assay, right-side-out vesicles to LptA*; assay type: biochemical, E. coli
T1 construct: made in house; host or cells: right-side-out membrane vesicles from E. coli BL-21(λDE3) overexpressing the complex
T1 sequence (P0AF98 whole entry): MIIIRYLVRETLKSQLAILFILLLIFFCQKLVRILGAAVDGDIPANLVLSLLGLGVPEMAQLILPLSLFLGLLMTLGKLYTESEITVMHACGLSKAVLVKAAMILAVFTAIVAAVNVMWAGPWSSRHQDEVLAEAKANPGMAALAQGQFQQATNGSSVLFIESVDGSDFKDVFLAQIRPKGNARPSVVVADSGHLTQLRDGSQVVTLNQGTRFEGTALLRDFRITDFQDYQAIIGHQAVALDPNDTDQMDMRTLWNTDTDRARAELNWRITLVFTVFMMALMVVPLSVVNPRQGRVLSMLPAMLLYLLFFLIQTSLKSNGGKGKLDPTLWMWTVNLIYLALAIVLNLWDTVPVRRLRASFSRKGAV
T1 sequence (P0ADV9 whole entry, further chain): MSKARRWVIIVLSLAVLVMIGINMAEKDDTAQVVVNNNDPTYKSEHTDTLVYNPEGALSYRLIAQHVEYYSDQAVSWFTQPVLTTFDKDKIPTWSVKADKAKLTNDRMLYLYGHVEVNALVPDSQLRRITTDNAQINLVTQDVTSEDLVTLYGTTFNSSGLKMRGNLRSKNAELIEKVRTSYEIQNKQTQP
T1 sequence (P0ADC6 whole entry, further chain): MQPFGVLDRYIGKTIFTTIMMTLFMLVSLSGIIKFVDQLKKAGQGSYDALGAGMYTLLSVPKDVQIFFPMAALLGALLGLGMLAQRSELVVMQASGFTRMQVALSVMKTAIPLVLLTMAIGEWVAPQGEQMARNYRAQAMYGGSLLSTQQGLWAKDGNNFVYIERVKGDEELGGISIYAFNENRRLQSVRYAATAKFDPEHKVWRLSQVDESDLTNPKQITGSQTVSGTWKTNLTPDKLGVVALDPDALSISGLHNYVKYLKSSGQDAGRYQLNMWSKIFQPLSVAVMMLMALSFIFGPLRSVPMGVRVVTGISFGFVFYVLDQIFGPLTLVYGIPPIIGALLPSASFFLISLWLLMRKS
T1 sequence (P0A9V1 2-241): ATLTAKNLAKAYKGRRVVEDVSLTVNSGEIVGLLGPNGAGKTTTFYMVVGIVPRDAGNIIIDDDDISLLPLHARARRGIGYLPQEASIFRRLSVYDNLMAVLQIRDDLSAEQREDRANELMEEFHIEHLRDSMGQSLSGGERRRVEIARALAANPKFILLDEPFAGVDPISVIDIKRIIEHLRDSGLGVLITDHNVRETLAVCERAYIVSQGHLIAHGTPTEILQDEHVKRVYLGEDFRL
Experimental: FIG. 9A is a schematic drawing showing the assay to monitor LPS release from right-side-out vesicles to LptA* (LptA(I36pBPA)). Vesicles containing overexpressed wild-type or mutant LptB2FGC complexes were incubated with LptA* and ATP at 30° C. to initiate LPS extraction and transport from the vesicles to LptA*. Samples were taken at different time points and UV-irradiated to crosslink LPS to LptA*, and accumulation of LPS-LptA* adducts was detected using LPS immunoblots.
FIG. 9D is a picture of an immunoblot showing that novobiocin and derivatives with impaired gyrase activities stimulate LPS transport in E. coli in vitro. […] Samples were UV irradiated at 365 nm for 5 minutes and then quenched with 2X SDS/5% β-mercaptoethanol. Samples were immunoblotted.
The assay detects via immunoblot LPS that becomes crosslinked to LptA* in the presence of UV light. […] By comparison, vesicles containing LptB2LptFG(ch)C complexes released less LPS over time (FIG. 9B, lanes 5-8). These experiments provide direct evidence that the amino acid changes in LptFG(ch), which were known to affect complex formation with LptB, impair LPS release. […] These compounds also increase LPS release from vesicles containing wild-type LptB2FGC complexes or LptB(R91 S)2FGC complexes (FIG. 17).
Samples were UV irradiated at 365 nm for 5 minutes and then quenched with 2X SDS/5% β-mercaptoethanol. Samples were immunoblotted.
The in vitro LPS-transport experiments in FIGS. 9B, 9C, and 17 were set-up as described in (Okuda et al. Science 2012, 338, 1214-1217) with some modifications. RSO-vesicles (50 μg total protein) were diluted into 100 μL reaction buffer (10% v/v glycerol, 20 mM Tris (pH 8.0), 150 mM NaCl, 5 mM sodium-ATP, 5 mM MgCl2), and incubated on ice with novobiocin, 1-adamantyl-novobiocin, or no compound for 15 minutes (50× compound stocks in water were used for each concentration). […]
Immunoblotting was used to assess LptA*-LPS levels in each sample. […] LptA levels were assessed similarly, using rabbit anti-LptA antiserum followed by donkey anti-rabbit horseradish peroxidase conjugate (GE Amersham). […]

CO[C@@H]1[C@@H](OC(N)=O)[C@@H](O)[C@H](Oc2ccc3c(O)c(NC(=O)c4ccc(O)c(CC=C(C)C)c4)c(=O)oc3c2C)OC1(C)C [Novobiocin, novobiocin]
synergy with PMBN ([1]; Novo^R A. baumannii): resistant to the same combination; also recorded: same synergy but at higher [novobiocin]
resistance of gyrB(R150C) point mutant towards novobiocin ([1]; relative to wild type): 300 fold
killing by combination with polymyxin B, CFU/mL over time [2]: synergy is bactericidal
synergy with polymyxin B [3]: synergizes with polymyxin B
zone of inhibition at 30 µg/disc (lptB1(G33C)): < 6 mm
zone of inhibition at 30 µg/disc (lptB1(R144H)): < 6 mm
zone of inhibition at 30 µg/disc (lptB1; read-out: Zone of inhibition, diameter of the zone of partial growth inhibition (in parentheses)): 24 mm
zone of inhibition at 30 µg/disc (lptB1; read-out: Zone of inhibition, diameter of the zone of total growth inhibition): 14 mm
zone of inhibition at 30 µg/disc (wild type): < 6 mm
LPS transport in vitro ([4]; overexpressed LptB2FGC vesicles, 30° C. for 1 hour (FIG. 9D, 9E)): stimulate LPS transport in vitro
LPS release from vesicles to LptA* ([4]; wild-type LptB2FGC or LptB(R91 S)2FGC vesicles (FIG. 17)): stimulates LPS release
